Measured values: patent publication US20060019936A1 (priority 2004, published 2006)
“Also recorded” adds a separate entry of the source. Where two headings read alike, the source gives them in different places.

Experiments:
rabbit uterine ER = biological target: T1, rabbit uterine ER (Oryctolagus cuniculus, UniProt G1SML6); test: Radiometric competitive binding assay for the ER (RBA); details: RBA for estradiol is 100
T1 construct: from tissue; host or cells: rabbit uterus
T1 sequence (G1SML6 1-598): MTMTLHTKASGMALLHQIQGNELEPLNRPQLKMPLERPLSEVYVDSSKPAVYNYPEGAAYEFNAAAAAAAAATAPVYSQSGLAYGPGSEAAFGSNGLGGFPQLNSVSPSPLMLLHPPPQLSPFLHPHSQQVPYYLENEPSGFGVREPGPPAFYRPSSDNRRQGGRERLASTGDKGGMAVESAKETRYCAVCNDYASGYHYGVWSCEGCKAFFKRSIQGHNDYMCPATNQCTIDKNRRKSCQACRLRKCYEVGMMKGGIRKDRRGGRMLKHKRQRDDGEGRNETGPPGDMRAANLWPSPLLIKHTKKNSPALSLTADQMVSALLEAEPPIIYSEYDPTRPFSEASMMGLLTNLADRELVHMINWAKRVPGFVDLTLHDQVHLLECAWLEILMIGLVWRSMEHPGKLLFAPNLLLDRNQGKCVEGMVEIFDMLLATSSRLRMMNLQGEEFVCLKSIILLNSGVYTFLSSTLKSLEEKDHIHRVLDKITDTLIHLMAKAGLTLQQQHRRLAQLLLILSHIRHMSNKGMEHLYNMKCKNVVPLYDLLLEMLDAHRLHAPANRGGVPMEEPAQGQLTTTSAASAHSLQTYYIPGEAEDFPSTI

[1] = biological target: T2, portion of the ER containing the estradiol binding site (Homo sapiens, UniProt P03372); test: Electrophoretic gel mobility shift assay of DNA adducts with ER
T2 sequence (P03372 311-547 limits assumed): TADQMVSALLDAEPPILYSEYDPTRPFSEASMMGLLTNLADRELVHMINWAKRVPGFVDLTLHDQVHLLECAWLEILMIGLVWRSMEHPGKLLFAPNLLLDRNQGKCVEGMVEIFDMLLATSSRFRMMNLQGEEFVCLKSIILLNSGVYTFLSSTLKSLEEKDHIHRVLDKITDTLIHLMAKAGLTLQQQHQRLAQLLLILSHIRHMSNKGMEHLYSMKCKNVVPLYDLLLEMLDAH

[2] = tested on: MCF-7 (ER+) breast cancer cells; test: Toxicity toward MCF-7 breast cancer cells; format: cell-based
[3] = tested on: MDA-MB231 (ER−) breast cancer cells; format: cell-based
[4] = pH 7.4
[5] = tested on: self complementary octamer deoxyoligonucleotide; test: Reactivity with DNA (piperidine labile sites); format: biochemical
LNCaP cells [6] = format: cell-based, human
PARP = format: cell-based, human
LNCaP cells [7] = test: Cell cycle analysis by flow cytometry; format: cell-based, human
LNCaP cells [8] = format: cell-based, human; remark: listed apart in the source
p27 (Kip1) = format: cell-based, human
p21 (WAF1/Cip1) = format: cell-based, human
p45 Skp2 = format: cell-based, human
c-Myc = c-Myc protein levels in LNCaP cells; format: cell-based, human
p70S6K = test: Phosphorylation status of p70S6K in LNCaP cells; format: cell-based, human
LNCaP cells [9] = test: DNA fragmentation by agarose gel electrophoresis; format: cell-based, human; details: 20 μM, 24 h exposure
Bid = Bid cleavage analysis; format: cell-based, human; details: LNCaP cells

Structure (SMILES)	relative binding affinity (RBA) for the ER (rabbit uterine ER)	complex formation of covalent DNA adducts with ER [1]	toxicity [2]	toxicity [3]	logD [4]	DNA modification, cleaved by piperidine [5] [%]	also measured
CC12CCC3c4ccc(O)cc4CC(CCCCCCNCCCCc4ccc(N(CCCl)CCCl)cc4)C3C1CCC2O (centres unmarked) [Compound 15]	40	form complexes	toxicity similar to that of 1	toxicity similar to that of 1			differential toxicity MCF-7 (ER+) versus MDA-MB231 (ER−) [2]: greater toxicity toward the ER-positive MCF-7 cells
O=P(NCCO)(c1ccccc1)c1ccccc1 [Compound 12]	comparable affinities		low toxicity	low toxicity	high logD values		
CC12CCC3c4ccc(O)cc4CC(CCCCCCNCCNC(=N)NCCCc4ccc(N(CCCl)CCCl)cc4)C3C1CCC2O (centres unmarked) [Compound 5]	low RBAs	form complexes; also recorded: virtually all of the modified oligonucleotide formed a slowly migrating band					toxicity at the highest dose [2]: neither compound showed significant toxicity; toxicity at the highest dose [3]: neither compound showed significant toxicity
CC12CCC3c4ccc(O)cc4CC(CCCCCCNC(=N)NCCCc4ccc(N(CCCl)CCCl)cc4)C3C1CCC2O (centres unmarked) [Compound 7]	comparable affinities	form complexes					toxicity at the highest dose [2]: neither compound showed significant toxicity; toxicity at the highest dose [3]: neither compound showed significant toxicity
CC(C)(C)[Si](C)(C)OCCNP(=O)(c1ccccc1)c1ccccc1 [Compound 13]	comparable affinities	form complexes	toxicity similar to that of 1	toxicity similar to that of 1		79	differential toxicity MCF-7 (ER+) versus MDA-MB231 (ER−) [2]: greater toxicity toward the ER-positive MCF-7 cells
CC12CCC3c4ccc(O)cc4CC(CCCCCCOC(=O)NCCCc4ccc(N(CCCl)CCCl)cc4)C3C1CCC2O (centres unmarked) [Compound 9]	low RBAs		low toxicity	low toxicity	> 5	3	
CC12CCC3c4ccc(O)cc4CC(CCCCCCNCCOC(=O)NCCCc4ccc(N(CCCl)CCCl)cc4)C3C1CCC2O (stereo not drawn) [Compound 1, 7α-{N-(2-(N-((N,N-bis-2-chloroethylaminophenyl)propyl)-carbamoyloxy)ethyl)aminohexyl}-3,17β-dihydroxyestra-1,3,5(10)-triene]	excellent affinity						complex formation of covalent DNA adducts with ER ([1]; gel mobility shift, band eliminated by excess estradiol): form complexes; also recorded: greatest affinity for the ER-LBD; differential toxicity MCF-7 (ER+) versus MDA-MB231 (ER−) ([2]; comparison of the two cell lines): significantly more toxic toward MCF-7 cells than MDA-MB231 cells; also recorded: largest differential toxicity
CC12CCC3c4ccc(O)cc4CC(CCCCCCNC(=O)CCCc4ccc(N(CCCl)CCCl)cc4)C3C1CCC2O (centres unmarked) [Compound 14]	low RBAs		low toxicity	low toxicity	> 5	14	
COCCN(CCOC)c1ccc(CCCNC(=O)OCCNCCCCCCC2CC3(C)C(O)CCC3C3CCC4=CC(=O)CCC4=C23)cc1 (stereo not drawn) [11β-dimethoxy]							changes in LNCaP cell shape (LNCaP cells [6]): slight contraction, which was reversed by 24 h; cleavage of PARP (PARP): No cleavage; LNCaP cells in G1 (LNCaP cells [7]; 10 uM for 20 hr, flow cytometry): > 90%; cell cycle arrest (LNCaP cells [7]; LNCaP cells): halt, albeit transiently, the growth of LNCaP cells in the G1 phase of the cell cycle; apoptotic response (LNCaP cells [8]): did not activate an apoptotic response; also recorded: does not induce markers of apoptosis; toxic effect / cell killing (LNCaP cells [8]): transient toxic effect but does not kill cells; levels of p27 (p27 (Kip1)): increased; eventual levels of p21 (p21 (WAF1/Cip1)): recovered to basal levels; initial change in levels of p21 (p21 (WAF1/Cip1)): initially decreased; levels of Skp2 (p45 Skp2): decreased; levels of the c-Myc protein (c-Myc): causes c-Myc levels to drop; effect on p70S6K (p70S6K): inhibits p70S6K
O=C(O)CCCc1ccc(N(CCCl)CCCl)cc1 [Chlorambucil, reference compound]							changes in LNCaP cell shape (LNCaP cells [6]): no effect on cellular shape; DNA fragmentation (LNCaP cells [9]): No changes; cleavage of PARP (PARP; 20 μM, LNCaP cells): No cleavage; Bid cleavage (Bid): No changes; apoptotic response (LNCaP cells [8]; LNCaP cells, single agent): fails to induce apoptosis; levels of p27 (p27 (Kip1); LNCaP cells, 20 μM, up to 15 h): without effect; levels of p21 (p21 (WAF1/Cip1); LNCaP cells, 20 μM, up to 15 h): potent inducer of p21; levels of Skp2 (p45 Skp2; LNCaP cells, 20 μM, up to 15 h): unaffected
